Test results reported in patent US8741946B2, “Inhibitors of flaviviridae viruses” (priority 2011, dated 2014).
Like-named read-outs stand apart in the source and are kept apart here.

What was measured:
[1] = target: T1, wild-type NS5B (amino acids 1-570; GT-1b) (Hepatitis C virus genotype 1b, UniProt Q9WMX2); assay: Surface Plasmon Resonance binding affinity to wild-type NS5B; parameters: species or system HCV GT-1b
T1 construct: 21 residue C-terminal truncated forms of the NS5b protein (amino acids 1-570); GT-1b; made in house
Excerpt: (§1) Compounds with minimal fold difference in binding affinity may have particular clinical utility.
(§2) In vitro studies with NS5B employed soluble, 21 residue C-terminal truncated forms of the NS5b protein (amino acids 1-570; GT-1b; wild-type and mutant M423T. See Hung, M., Wang, R., Liu, X.: ‘Preparation of HCV NS3 and NS5B to support small molecule drug discovery’, Current Protocols in Pharmacology, 2011, in press). Surface Plasmon Resonance (SPR) was used to measure the binding affinity of compounds described herein to the protein constructs. Standard amine coupling was employed to link the protein to the surface of a Biacore CM5 sensor chip using 10 mM sodium acetate pH 5.5 buffer to an immobilization level of ˜2500 RU. Experiments were performed using a Biacore T100 system at 25° C. in running buffer (50 mM Hepes pH 7.5, 5 mM MgCl2, […], 1 mM EDTA, 1 mM TCEP, 0.01% P20, 5% DMSO). Compounds were tested in a 3-fold concentration dilution series for 8 concentrations starting at 162 nM, using an association phase of 60 seconds and dissociation phase of 5 minutes at a flow rate of 100 μl min^−1. At the end of each binding cycle, a 3-second injection of a buffer (10 mM disodium tetraborate, 1M NaCl, pH8.5) at 40 μl min^−1 was used as a regeneration step to remove compounds still bound to the NS5B surface. Response data were processed using the following procedure: injections aligned in X and Y directions, double referenced using both a reference surface and buffer injections, and DMSO correction for excluded volume effects. Processed data were analyzed using non-linear least squares analysis with a global fit of a 1:1 binding model with mass transport.

[2] = tested on: HCV replicon; assay: HCV replicon assay in Huh-7 cells (luciferase); format: cell-based; conditions: Hepatitis C virus, 72 h; Huh-7 HCV replicon cells, 3 days incubation, luciferase readout; read-out: Wild-type EC50
Experimental: The anti-HCV activity of the compounds of this invention was tested in a human hepatoma Huh-7 cell line harboring a HCV replicon. The assay comprised the following steps:
Serial dilution was performed in 100% DMSO in a 384-well plate. A solution containing a compound at 225-fold concentration of the starting final serial dilution concentration was prepared in 100% DMSO and 15 μL added to the pre-specified wells in column 3 or 13 of a polypropylene 384-well plate. The rest of the 384-well plate was filled with 10 μL100% DMSO except for columns 23 and 24, where 10 μL of 500 uM a HCV protease inhibitor (ITMN-191) in 100% DMSO was added. The HCV protease inhibitor was used a control of 100% inhibition of HCV replication. The plate was then placed on a Biomek FX Workstation to start the serial dilution. The serial dilution was performed for ten cycles of 3-fold dilution from column 3 to 12 or from column 13 to 22.
To each well of a black polypropylene 384-well plate, 90 μL of cell media containing 1600 suspended Huh-7 HCV replicon cells was added with a Biotek uFlow Workstation. A volume of 0.4 μL of the compound solution was transferred from the serial dilution plate to the cell culture plate on a Biomek FX Workstation. The DMSO concentration in the final assay condition was 0.44%. The plates were incubated for 3 days at 37° C. with 5% CO2 and 85% humidity.
a) Assessment of cytotoxicity: The media in the 384-well cell culture plate was aspirated with a Biotek EL405 plate-washer. A volume of 50 μL of a solution containing 400 nM Calcein AM in 100% PBS was added to each well of the plate with a Biotek uFlow Workstation. The plate was incubated for 30 minutes at room temperature before the fluorescence signal ([…]) was measured with a Perkin Elmer Envision Plate Reader.
b) Assessment of inhibition of viral replication: The calcein-PBS solution in the 384-well cell culture plate was aspirated with a Biotek EL405 plate-washer. A volume of 20 μL of Dual-Glo luciferase buffer (Promega, Dual-Glo Luciferase Assay Reagent, cat. #E298B) was added to each well of the plate with a Biotek uFlow Workstation. The plate was incubated for 10 minutes at room temperature. A volume of 20 μL of a solution containing 1:100 mixture of Dual-Glo Stop & Glo substrate (Promega, Dual-Glo Luciferase Assay Reagent, cat. #E313B) and Dual-Glo Stop & Glo buffer (Promega, Dual-Glo Luciferase Assay Reagent, cat. #E314B) was then added to each well of the plate with a Biotek uFlow Workstation. The plate was incubated at room temperature for 10 minutes before the luminescence signal was measured with a Perkin Elmer Envision Plate Reader.
The percent cytotoxicity was determined by calcein AM conversion to fluorescent product. The average fluorescent signal from the DMSO control wells were defined as 100% nontoxic. The individual fluorescent signal from testing compound treated well was divided by the average signal from DMSO control wells and then multiplied by 100% to get the percent viability. The percent anti-HCV replication activity was determined by the luminescence signal from the testing well compared to DMSO controls wells. The background signal was determined by the average luminescence signal from the HCV protease inhibitor treated wells and was subtracted from the signal from the testing wells as well as the DMSO control wells. Following 3-fold serial dilutions, the EC50 and CC50 values were calculated by fitting % inhibition at each concentration to the following equation: % inhibition=100%/[(EC50/[I])^b+1]
Where b is Hill's coefficient. See, for reference, Hill, A. V., The Possible Effects of the Aggregation of the Molecules of Hemoglobin on its Dissociation Curves, J. Physiol. 40: iv-vii. (1910).
% inhibition values at a specific concentration, for example 2 μM, can also be derived from the formula above.

[3] = tested on: NS5B mutant M423T (amino acids 1-570; GT-1b); assay: Surface Plasmon Resonance binding affinity to M423T NS5B; parameters: species or system HCV GT-1b; conditions: M423T KD versus wild-type KD
Excerpt: as §1, §2

[4] = target: T2, NS5B mutant M423T (amino acids 1-570; GT-1b) (Hepatitis C virus genotype 1b, UniProt Q9WMX2, M2842T); assay: as above; parameters: species or system HCV GT-1b
T2 construct: 21 residue C-terminal truncated forms of the NS5b protein (amino acids 1-570); GT-1b; made in house
Excerpt: as §1, §2

[5] = tested on: genotype 1b (Con-1 strain) HCV replicon with NS5B M423T mutation; assay: Transient transfection replicon assay, NS5B M423T mutant PI-hRluc replicon in Huh-lunet cells; format: cell-based, HCV genotype 1b (Con-1 strain); conditions: Hepatitis C virus, 72 h, read-out: Replicon transient transfection EC50 M423T
[6] = tested on: genotype 1b (Con-1 strain) HCV replicon, wild-type; assay: Transient transfection replicon assay, wild-type PI-hRluc replicon in Huh-lunet cells; format: cell-based, HCV genotype 1b (Con-1 strain); conditions: Hepatitis C virus, 72 h, wild-type genotype 1b PI-hRluc replicon, three days
[7] = SPR, Biacore T100, 25° C., wild-type NS5B, read-out: Wild-type KD

Compound | Kd [1, 7] [nM] | EC50 [2] [nM] | Fold difference [3] | Kd [4] [nM] | EC50 [5] [nM] | EC50 [6] [nM] | Kd [1] [nM]
CC1=CC[C@H](C(=O)N(c2cc(C#CC(C)(C)C)sc2C(=O)O)C(C)C)[C@H](C)C1 (single isomer, unassigned) [Example 1] | 1.4 | 8 | 5.6 | 7.7 |  |  | 
CC1=CC[C@@H](C(=O)N(c2cc(C#CC(C)(C)C)sc2C(=O)O)C(C)C)[C@H](C)C1 (single isomer, unassigned) [Example 2] | 2.8 | 5 | 9.5 | 26.8 |  |  | 
CC(C)N(c1cc(C#CC(C)(C)C)sc1C(=O)O)C(=O)[C@H]1CC[C@H](C)CC1 [Comparative example 1, 5-(3,3-Dimethylbut-1-ynyl)-3-((1r,4r)-N-isopropyl-4-methylcyclohexanecarboxamido)thiophene-2-carboxylic acid, reference compound] | 1.7 | 26 | 16 | 2.78 | 293 | 26 | 
CC(C)(C)C#Cc1cc(N(C(=O)[C@H]2CC[C@H](C)CC2)[C@H]2CC[C@H](O)CC2)c(C(=O)O)s1 [Comparative example 2, 5-(3,3-Dimethylbut-1-ynyl)-3-((1r,4R)—N-((1r,4R)-4-hydroxycyclohexyl)-4-methylcyclohexanecarboxamido)thiophene-2-carboxylic acid, reference compound] |  | 6 |  |  | 343 | 10 | 
CC(C)N(C(=O)[C@H]1CC[C@H](C)C[C@@H]1C)c1cc(C#CC(C)(C)C)sc1C(=O)O [Comparative example 3, 5-(3,3-Dimethylbut-1-ynyl)-3-((1S,2S,4S)—N-isopropyl-2,4-dimethylcyclohexanecarboxamido)thiophene-2-carboxylic acid, reference compound] |  | 50 |  |  |  |  | 
CC(C)N(C(=O)[C@@H]1CC[C@@H](C)C[C@H]1C)c1cc(C#CC(C)(C)C)sc1C(=O)O [Comparative example 4, 5-(3,3-Dimethylbut-1-ynyl)-3-((1R,2R,4R)—N-isopropyl-2,4-dimethylcyclohexanecarboxamido)thiophene-2-carboxylic acid, reference compound] | 3.6 | 8 | 40 | 144 |  |  | 
CC1=CC[C@H](C(=O)N(c2cc(C#CC(C)(C)C)sc2C(=O)O)C(C)C)[C@@H](C)C1 [Example 3, 5-(3,3-Dimethylbut-1-ynyl)-3-((1S,6S)—N-isopropyl-4,6-dimethylcyclohex-3-enecarboxamido)thiophene-2-carboxylic acid] | 0.7 | 5 |  | 4.2 | 14 | 5 | 
CC1=CC[C@@H](C(=O)N(c2cc(C#CC(C)(C)C)sc2C(=O)O)C(C)C)[C@@H](C)C1 [Example 4, 5-(3,3-dimethylbut-1-ynyl)-3-((1R,6S)—N-isopropyl-4,6-dimethylcyclohex-3-enecarboxamido)thiophene-2-carboxylic acid] | 6.5 | 38 |  | 18.5 |  |  | 
CC1=CC[C@@H](C(=O)N(c2cc(C#CC(C)(C)C)sc2C(=O)O)C(C)C)CC1 [Example 5, (S)-5-(3,3-Dimethylbut-1-ynyl)-3-(N-isopropyl-4-methylcyclohex-3-enecarboxamido)thiophene-2-carboxylic acid] |  | 10 | 9.0 | 13.7 |  |  | 1.5
CC1=CC[C@H](C(=O)N(c2cc(C#CC(C)(C)C)sc2C(=O)O)C(C)C)CC1 [Example 6, (R)-5-(3,3-Dimethylbut-1-ynyl)-3-(N-isopropyl-4-methylcyclohex-3-enecarboxamido)thiophene-2-carboxylic acid] | 1.3 | 7 | 11 | 14.3 | 40 | 8 | 
CC1=CC[C@H](C(=O)N(c2cc(C#CC(C)(C)C)sc2C(=O)O)[C@H]2CC[C@H](O)CC2)[C@@H](C)C1 [Example 7, 5-(3,3-Dimethylbut-1-ynyl)-3-((1S,6S)—N-((1r,4S)-4-hydroxycyclohexyl)-4,6-dimethylcyclohex-3-enecarboxamido)thiophene-2-carboxylic acid] |  | < 4.5 |  |  |  |  | 
CC1=CC[C@H](C(=O)N(c2cc(C#CC(C)(C)C)sc2C(=O)O)[C@H]2CC[C@H](O)CC2)CC1 [Example 8, 5-(3,3-Dimethylbut-1-ynyl)-3-((R)—N-((1r,4R)-4-hydroxycyclohexyl)-4-methylcyclohex-3-enecarboxamido)thiophene-2-carboxylic acid] |  | < 2.3 |  |  |  |  | 
